In patent publication US10189816B2, “Substituted pyridines as inhibitors of human immunodeficiency virus replication” (priority 2015, dated 2019) one finds EC50 data, which are given here for 22 compounds.

The subject of the assay is NL-RLuc virus. In words: Inhibition of HIV replication (NL-RLuc reporter virus in MT-2 cells, luciferase readout). It is filed as cell-based. The note with it: Human immunodeficiency virus 1, MT2, 120 h. The method, boiled down: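 MT-2 cells infected with NL4-3-derived NL-RLuc reporter virus (Renilla luciferase replacing part of nef) with serial compound dilutions, RPMI 1640 + 10% FBS; 5 days. Growth by luciferase; EC50 from median effect equation, ≥2 experiments.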

Read-outs that look alike come from different tables or passages of the source.

As to `COc1cc(F)c(F)cc1CN1CCc2cc(-c3c(C)nc(C)c([C@H](OC(C)(C)C)C(=O)O)c3N3CCC(C)(C)CC3)ccc2C1` [Compound 86, (S)-2-(tert-butoxy)-2-(5-(2-(4,5-difluoro-2-methoxybenzyl)-1,2,3,4-tetrahydroisoquinolin-6-yl)-4-(4,4-dimethylpiperidin-1-yl)-2,6-dimethylpyridin-3-yl)acetic acid], the EC50 (read-out: Activity) is less than 0.1 µM.
On the same count and under the same terms, the value for `COc1ccc(F)c(F)c1CN1CCc2cc(-c3c(C)nc(C)c([C@H](OC(C)(C)C)C(=O)O)c3N3CCC(C)(C)CC3)ccc2C1` [Compound 87, (S)-2-(tert-butoxy)-2-(5-(2-(2,3-difluoro-6-methoxybenzyl)-1,2,3,4-tetrahydroisoquinolin-6-yl)-4-(4,4-dimethylpiperidin-1-yl)-2,6-dimethylpyridin-3-yl)acetic acid] was less than 0.1 µM.
Take `Cc1nc(C)c([C@H](OC(C)(C)C)C(=O)O)c(N2CCC(C)(C)CC2)c1-c1ccc2c(c1)CCN(Cc1ccccc1OCCO)C2` [Compound 88, (S)-2-(tert-butoxy)-2-(4-(4,4-dimethylpiperidin-1-yl)-5-(2-(2-(2-hydroxyethoxy)benzyl)-1,2,3,4-tetrahydroisoquinolin-6-yl)-2,6-dimethylpyridin-3-yl)acetic acid]: the EC50 is, setting by setting: (read-out: Activity) less than 0.1 µM; (read-out: EC50 μM) 0.012 µM.
For `CCOc1cc(Cl)cc(Cl)c1CN1CCc2cc(-c3c(C)nc(C)c([C@H](OC(C)(C)C)C(=O)O)c3N3CCC(C)(C)CC3)ccc2C1` [Compound 90, (S)-2-(tert-butoxy)-2-(5-(2-(2,4-dichloro-6-ethoxybenzyl)-1,2,3,4-tetrahydroisoquinolin-6-yl)-4-(4,4-dimethylpiperidin-1-yl)-2,6-dimethylpyridin-3-yl)acetic acid], where the note is “read-out: Activity”, the EC50 is less than 0.1 µM.
Still for that read-out and setting: the value for `COc1ccc(CN2CCc3cc(-c4c(C)nc(C)c([C@H](OC(C)(C)C)C(=O)O)c4N4CCC(C)(C)CC4)ccc3C2)c(Cl)c1Cl` [Compound 91, (S)-2-(tert-butoxy)-2-(5-(2-(2,3-dichloro-4-methoxybenzyl)-1,2,3,4-tetrahydroisoquinolin-6-yl)-4-(4,4-dimethylpiperidin-1-yl)-2,6-dimethylpyridin-3-yl)acetic acid] was less than 0.1 µM.
Same read-out and setting: the value for `COc1ccc(F)c(CN2CCc3cc(-c4c(C)nc(C)c([C@H](OC(C)(C)C)C(=O)O)c4N4CCC(C)(C)CC4)ccc3C2)c1F` [Compound 92, (S)-2-(tert-butoxy)-2-(5-(2-(2,6-difluoro-3-methoxybenzyl)-1,2,3,4-tetrahydroisoquinolin-6-yl)-4-(4,4-dimethylpiperidin-1-yl)-2,6-dimethylpyridin-3-yl)acetic acid] was less than 0.1 µM; that for `COc1cc(CN2CCc3cc(-c4c(C)nc(C)c([C@H](OC(C)(C)C)C(=O)O)c4N4CCC(C)(C)CC4)ccc3C2)c(F)cc1Cl` [Compound 93, (S)-2-(tert-butoxy)-2-(5-(2-(4-chloro-2-fluoro-5-methoxybenzyl)-1,2,3,4-tetrahydroisoquinolin-6-yl)-4-(4,4-dimethylpiperidin-1-yl)-2,6-dimethylpyridin-3-yl)acetic acid] was less than 0.1 µM; that for `COc1cc(CN2CCc3cc(-c4c(C)nc(C)c([C@H](OC(C)(C)C)C(=O)O)c4N4CCC(C)(C)CC4)ccc3C2)c(F)cc1F` [Compound 94, (S)-2-(tert-butoxy)-2-(5-(2-(2,4-difluoro-5-methoxybenzyl)-1,2,3,4-tetrahydroisoquinolin-6-yl)-4-(4,4-dimethylpiperidin-1-yl)-2,6-dimethylpyridin-3-yl)acetic acid] was less than 0.1 µM.
Take `COc1c(F)cc(CN2CCc3cc(-c4c(C)nc(C)c([C@H](OC(C)(C)C)C(=O)O)c4N4CCC(C)(C)CC4)ccc3C2)cc1F` [Compound 95, (S)-2-(tert-butoxy)-2-(5-(2-(3,5-difluoro-4-methoxybenzyl)-1,2,3,4-tetrahydroisoquinolin-6-yl)-4-(4,4-dimethylpiperidin-1-yl)-2,6-dimethylpyridin-3-yl)acetic acid]: the EC50 (read-out: Activity) is less than 0.1 µM.
For the compound `Cc1nc(C)c([C@H](OC(C)(C)C)C(=O)O)c(N2CCC(C)(C)CC2)c1-c1ccc2c(c1)CCN(Cc1cc(F)cc(F)c1F)C2` [Compound 96, (S)-2-(tert-butoxy)-2-(4-(4,4-dimethylpiperidin-1-yl)-2,6-dimethyl-5-(2-(2,3,5-trifluorobenzyl)-1,2,3,4-tetrahydroisoquinolin-6-yl)pyridin-3-yl)acetic acid], the EC50 reads like this: (read-out: Activity) less than 0.1 µM; (read-out: EC50 μM) 0.003 µM.
Take `COc1ccc(CN2CCc3cc(-c4c(C)nc(C)c([C@H](OC(C)(C)C)C(=O)O)c4N4CCC(C)(C)CC4)ccc3C2)cc1F` [Compound 97, (S)-2-(tert-butoxy)-2-(4-(4,4-dimethylpiperidin-1-yl)-5-(2-(3-fluoro-4-methoxybenzyl)-1,2,3,4-tetrahydroisoquinolin-6-yl)-2,6-dimethylpyridin-3-yl)acetic acid]: the EC50 (read-out: Activity) was less than 0.1 µM.
As for `COc1c(CN2CCc3cc(-c4c(C)nc(C)c([C@H](OC(C)(C)C)C(=O)O)c4N4CCC(C)(C)CC4)ccc3C2)cccc1C(F)(F)F` [Compound 98, (S)-2-(tert-butoxy)-2-(4-(4,4-dimethylpiperidin-1-yl)-5-(2-(2-methoxy-3-(trifluoromethyl)benzyl)-1,2,3,4-tetrahydroisoquinolin-6-yl)-2,6-dimethylpyridin-3-yl)acetic acid], under “read-out: Activity”, the EC50 is less than 0.1 µM.
In the case of `COc1ccc(Cl)cc1CN1CCc2cc(-c3c(C)nc(C)c([C@H](OC(C)(C)C)C(=O)O)c3N3CCC(C)(C)CC3)ccc2C1` [Compound 99, (S)-2-(tert-butoxy)-2-(5-(2-(5-chloro-2-methoxybenzyl)-1,2,3,4-tetrahydroisoquinolin-6-yl)-4-(4,4-dimethylpiperidin-1-yl)-2,6-dimethylpyridin-3-yl)acetic acid], the EC50 (read-out: Activity) was less than 0.1 µM.
On the same count and under the same terms, the value for `COc1cc(Cl)cc(CN2CCc3cc(-c4c(C)nc(C)c([C@H](OC(C)(C)C)C(=O)O)c4N4CCC(C)(C)CC4)ccc3C2)c1` [Compound 100, (S)-2-(tert-butoxy)-2-(5-(2-(3-chloro-5-methoxybenzyl)-1,2,3,4-tetrahydroisoquinolin-6-yl)-4-(4,4-dimethylpiperidin-1-yl)-2,6-dimethylpyridin-3-yl)acetic acid] was less than 0.1 µM; that for `COc1cc(CN2CCc3cc(-c4c(C)nc(C)c([C@H](OC(C)(C)C)C(=O)O)c4N4CCC(C)(C)CC4)ccc3C2)ccc1F` [Compound 101, (S)-2-(tert-butoxy)-2-(4-(4,4-dimethylpiperidin-1-yl)-5-(2-(4-fluoro-3-methoxybenzyl)-1,2,3,4-tetrahydroisoquinolin-6-yl)-2,6-dimethylpyridin-3-yl)acetic acid] was less than 0.1 µM; that for `Cc1nc(C)c([C@H](OC(C)(C)C)C(=O)O)c(N2CCC(C)(C)CC2)c1-c1ccc2c(c1)CCN(Cc1ccc(OC(F)(F)F)cc1)C2` [Compound 102, (S)-2-(tert-butoxy)-2-(4-(4,4-dimethylpiperidin-1-yl)-2,6-dimethyl-5-(2-(4-(trifluoromethoxy)benzyl)-1,2,3,4-tetrahydroisoquinolin-6-yl)pyridin-3-yl)acetic acid] was less than 0.1 µM.
With `CCOc1cccc(CN2CCc3cc(-c4c(C)nc(C)c([C@H](OC(C)(C)C)C(=O)O)c4N4CCC(C)(C)CC4)ccc3C2)c1` [Compound 103, (S)-2-(tert-butoxy)-2-(4-(4,4-dimethylpiperidin-1-yl)-5-(2-(3-ethoxybenzyl)-1,2,3,4-tetrahydroisoquinolin-6-yl)-2,6-dimethylpyridin-3-yl)acetic acid], the EC50 runs as follows: (read-out: Activity) less than 0.1 µM; (read-out: EC50 μM) 0.012 µM.
`Cc1nc(C)c([C@H](OC(C)(C)C)C(=O)O)c(N2CCC(C)(C)CC2)c1-c1ccc2c(c1)CCN(Cc1ccc(OC(F)(F)F)c(Cl)c1)C2` [Compound 104, (S)-2-(tert-butoxy)-2-(5-(2-(3-chloro-4-(trifluoromethoxy)benzyl)-1,2,3,4-tetrahydroisoquinolin-6-yl)-4-(4,4-dimethylpiperidin-1-yl)-2,6-dimethylpyridin-3-yl)acetic acid]: under “read-out: Activity”, the EC50 was less than 0.1 µM.
Turning to `Cc1nc(C)c([C@H](OC(C)(C)C)C(=O)O)c(N2CCC(C)(C)CC2)c1-c1ccc2c(c1)CCN(Cc1ccc(OC(F)F)cc1F)C2` [Compound 105, (S)-2-(tert-butoxy)-2-(5-(2-(4-(difluoromethoxy)-2-fluorobenzyl)-1,2,3,4-tetrahydroisoquinolin-6-yl)-4-(4,4-dimethylpiperidin-1-yl)-2,6-dimethylpyridin-3-yl)acetic acid], under “read-out: Activity”, the EC50 was less than 0.1 µM.
On the same count and under the same terms, the value for `COc1cc(F)c(CN2CCc3cc(-c4c(C)nc(C)c([C@H](OC(C)(C)C)C(=O)O)c4N4CCC(C)(C)CC4)ccc3C2)c(F)c1` [Compound 106, (S)-2-(tert-butoxy)-2-(5-(2-(2,6-difluoro-4-methoxybenzyl)-1,2,3,4-tetrahydroisoquinolin-6-yl)-4-(4,4-dimethylpiperidin-1-yl)-2,6-dimethylpyridin-3-yl)acetic acid] was less than 0.1 µM.
As to `COc1cc(F)cc(F)c1CN1CCc2cc(-c3c(C)nc(C)c([C@H](OC(C)(C)C)C(=O)O)c3N3CCC(C)(C)CC3)ccc2C1` [Compound 107, (S)-2-(tert-butoxy)-2-(5-(2-(2,4-difluoro-6-methoxybenzyl)-1,2,3,4-tetrahydroisoquinolin-6-yl)-4-(4,4-dimethylpiperidin-1-yl)-2,6-dimethylpyridin-3-yl)acetic acid], for the setting “read-out: Activity”, the EC50 is less than 0.1 µM.
For `Cc1nc(C)c([C@H](OC(C)(C)C)C(=O)O)c(N2CCC(C)(C)CC2)c1-c1ccc2c(c1)CCN(Cc1ccc(OC(F)(F)F)c(F)c1)C2` [Compound 108, (S)-2-(tert-butoxy)-2-(4-(4,4-dimethylpiperidin-1-yl)-5-(2-(3-fluoro-4-(trifluoromethoxy)benzyl)-1,2,3,4-tetrahydroisoquinolin-6-yl)-2,6-dimethylpyridin-3-yl)acetic acid], the EC50 (read-out: Activity) is less than 0.1 µM.
